Laboratory results taken from US10173971B2, “Picolinamides with fungicidal activity” (DOW AGROSCIENCES LLC, priority 2014, dated 2019).
Like-named read-outs stand apart in the source and are kept apart here.

What was measured:
Puccinia triticina = experiment: Fungicidal activity: wheat brown rust (PUCCRT), wheat seedlings, booth sprayer to run-off or track spray; type: in vivo; conditions: for pest or weed control at 100 ppm: High-Volume Cereal Activity at 100 ppm; for pest or weed control at 121.5 g/ha: Low-Volume Cereal Activity at 121.5 g/H
Method: All fungicides were evaluated using the aforementioned method for their activity vs. all target diseases. Wheat leaf blotch and brown rust activity were also evaluated using track spray applications, in which case the fungicides were formulated as EC formulations, containing 0.1% Trycol 5941 in the spray solutions. Wheat plants (variety Yuma) were grown from seed in a greenhouse in 50% mineral soil/50% soil-less Metro mix until the first leaf was fully emerged, with 7-10 seedlings per pot. These plants were inoculated with an aqueous spore suspension of Puccinia triticina either prior to or after fungicide treatments. […] The plants were then transferred to a greenhouse set at 24° C. for disease to develop. Fungicide formulation, application and disease assessment followed the procedures as described in the Example A.

Zymoseptoria tritici = experiment: Fungicidal activity: leaf blotch of wheat (SEPTTR), wheat seedlings, booth sprayer to run-off or track spray; type: in vivo; conditions: for pest or weed control at 100 ppm: High-Volume Cereal Activity at 100 ppm; for pest or weed control at 121.5 g/ha: Low-Volume Cereal Activity at 121.5 g/H
Method: All fungicides were evaluated using the aforementioned method for their activity vs. all target diseases. Wheat leaf blotch and brown rust activity were also evaluated using track spray applications, in which case the fungicides were formulated as EC formulations, containing 0.1% Trycol 5941 in the spray solutions. Wheat plants (variety Yuma) were grown from seed in a greenhouse in 50% mineral soil/50% soil-less Metro mix until the first leaf was fully emerged, with 7-10 seedlings per pot. These plants were inoculated with an aqueous spore suspension of Zymoseptoria tritici either prior to or after fungicide treatments. After inoculation the plants were kept in 100% relative humidity (one day in a dark dew chamber followed by two to three days in a lighted dew chamber at 20° C.) to permit spores to germinate and infect the leaf. The plants were then transferred to a greenhouse set at 20° C. for disease to develop. When disease symptoms were fully expressed on the 1st leaves of untreated plants, infection levels were assessed on a scale of 0 to 100 percent disease severity. Percent disease control was calculated using the ratio of disease severity on treated plants relative to untreated plants.

[1] = 24 h, 1 Day Protectant, read-out: PUCCRT 1DP
[2] = 3DC (Day Curative), read-out: PUCCRT 3DC
[3] = 24 h, 1 Day Protectant, read-out: SEPTTR 1DP
[4] = 3DC (Day Curative), read-out: SEPTTR 3DC
[5] = 72 h, 3 Day Curative, read-out: PUCCRT 3DC

SMILES | pest or weed control at 100 ppm (Puccinia triticina; [1]) [%] | pest or weed control at 100 ppm (Puccinia triticina; [2]) [%] | pest or weed control at 100 ppm (Zymoseptoria tritici; [3]) [%] | pest or weed control at 100 ppm (Zymoseptoria tritici; [4]) [%] | also measured
CCCO[C@@H](CC)[C@@H](Cc1ccccc1)[C@H](C)OC(=O)[C@H](C)NC(=O)c1nccc(OC)c1O [compound 91] | 80 to 100 | 80 to 100 | 0 to 80 | 80 to 100 | 
CCCO[C@H](CC)[C@@H](Cc1ccccc1)[C@H](C)OC(=O)[C@H](C)NC(=O)c1nccc(OC)c1O [compound 92] | 80 to 100 | 80 to 100 | 80 to 100 | 80 to 100 | 
CCCOC[C@@H](Cc1ccccc1)[C@H](C)OC(=O)[C@H](C)NC(=O)c1nccc(OC)c1O [compound 93] | 80 to 100 | 80 to 100 | 0 to 80 | 80 to 100 | 
CCCO[C@@H](CC)[C@@H](Cc1ccccc1)[C@H](C)OC(=O)[C@@H](C)NC(=O)c1nccc(OC)c1O [compound 94] | 80 to 100 | 80 to 100 | 0 to 80 | 0 to 80 | 
CCCO[C@@H](CC)[C@@H](Cc1ccccc1)[C@H](C)OC(=O)[C@H](CC)NC(=O)c1nccc(OC)c1O [compound 95] | 80 to 100 | 80 to 100 | 0 to 80 | 0 to 80 | 
CCCO[C@H](CC)[C@@H](Cc1ccccc1)[C@H](C)OC(=O)[C@@H](C)NC(=O)c1nccc(OC)c1O [compound 96] | 80 to 100 | 80 to 100 | 80 to 100 | 0 to 80 | 
CCCOC[C@@H](Cc1ccccc1)[C@H](C)OC(=O)[C@@H](C)NC(=O)c1nccc(OC)c1O [compound 97] | 0 to 80 | 0 to 80 | 0 to 80 | 0 to 80 | 
CCCOC[C@@H](Cc1ccccc1)[C@H](C)OC(=O)[C@H](CC)NC(=O)c1nccc(OC)c1O [compound 98] | 80 to 100 | 80 to 100 | 80 to 100 | 80 to 100 | 
CCCOC[C@@H](Cc1ccccc1)[C@H](C)OC(=O)C(C)(C)NC(=O)c1nccc(OC)c1O [compound 99] | 0 to 80 | 0 to 80 |  | 0 to 80 | 
CCCO[C@@H](CC)[C@@H](Cc1ccccc1)[C@H](C)OC(=O)C(C)(C)NC(=O)c1nccc(OC)c1O [compound 100] | 0 to 80 |  |  | 0 to 80 | 
CC[C@H](CCCc1ccccc1)[C@@H](CC(C)C)[C@H](C)OC(=O)C(C)NC(=O)c1nccc(OC)c1O (stereo partly shown) [compound 101] | 80 to 100 | 0 to 80 | 80 to 100 |  | 
CC[C@H](CC1CC1)[C@@H](Cc1ccccc1)[C@H](C)OC(=O)[C@H](C)NC(=O)c1nccc(OC)c1O [compound 102] | 80 to 100 | 80 to 100 | 0 to 80 | 80 to 100 | 
CC[C@H](Cc1ccccc1)[C@@H](Cc1ccc(F)cc1)[C@H](C)OC(=O)[C@H](C)NC(=O)c1nccc(OC)c1O [compound 103] | 80 to 100 | 0 to 80 | 80 to 100 | 0 to 80 | 
CCCOC[C@@H](Cc1ccccc1)[C@H](C)OC(=O)CNC(=O)c1nccc(OC)c1O [compound 104] |  | 0 to 80 |  | 0 to 80 | 
CCOC[C@H](Oc1ccc(C)cc1)[C@@H](Cc1ccc(F)cc1)[C@H](C)OC(=O)[C@H](C)NC(=O)c1nccc(OC)c1O [compound 105] | 80 to 100 | 0 to 80 | 0 to 80 | 0 to 80 | 
CCCOC[C@@H](Cc1ccccc1)[C@H](C)OC(=O)C(COC)NC(=O)c1nccc(OC)c1O (stereo partly shown) [compound 106] | 0 to 80 | 0 to 80 |  | 0 to 80 | 
C=C[C@H](Cc1ccc(C(F)(F)F)cc1)[C@@H](Cc1ccc(F)cc1)[C@H](C)OC(=O)[C@H](COC)NC(=O)c1nccc(OC)c1O [compound 107] | 0 to 80 |  |  |  | 
C=C[C@H](Cc1ccc(C(F)(F)F)cc1)[C@@H](Cc1ccc(F)cc1)[C@H](C)OC(=O)[C@H](C)NC(=O)c1nccc(OC)c1O [compound 108] | 80 to 100 |  |  | 0 to 80 | 

SMILES | pest or weed control at 100 ppm (Puccinia triticina; [1]) [%] | pest or weed control at 100 ppm (Puccinia triticina; [2]) [%] | pest or weed control at 100 ppm (Zymoseptoria tritici; [3]) [%] | pest or weed control at 100 ppm (Zymoseptoria tritici; [4]) [%] | also measured
C=C[C@H](Cc1ccc(C(F)(F)F)cc1)[C@@H](Cc1ccc(F)cc1)[C@H](C)OC(=O)CNC(=O)c1nccc(OC)c1O [compound 109] | 0 to 80 |  |  |  | 
CC[C@H](Cc1ccc(C(F)(F)F)cc1)[C@@H](Cc1ccc(F)cc1)[C@H](C)OC(=O)[C@H](COC)NC(=O)c1nccc(OC)c1O [compound 110] | 80 to 100 |  |  |  | 
CC[C@H](Cc1ccccc1)[C@@H](Cc1ccc(OC(F)(F)F)cc1)[C@H](C)OC(=O)[C@H](C)NC(=O)c1nccc(OC)c1O [compound 112] | 0 to 80 |  | 0 to 80 |  | 
CCC[C@@H](Cc1ccccc1)[C@H](C)OC(=O)[C@H](C)NC(=O)c1nccc(OC)c1O [compound 113] | 80 to 100 | 80 to 100 | 0 to 80 | 80 to 100 | 
COC(=O)[C@@H](Cc1ccccc1)[C@H](C)OC(=O)[C@H](C)NC(=O)c1nccc(OC)c1O [compound 114] | 0 to 80 | 0 to 80 |  | 0 to 80 | 
CCCC[C@@H]([C@H](C)OC(=O)[C@H](C)NC(=O)c1nccc(OC)c1O)[C@H](CC)Oc1ccccc1 [compound 115] | 80 to 100 | 80 to 100 |  | 80 to 100 | 
CCCC[C@@H]([C@H](C)OC(=O)[C@H](C)NC(=O)c1nccc(OC)c1O)[C@@H](CC)Oc1ccccc1 [compound 116] | 0 to 80 | 80 to 100 | 0 to 80 | 0 to 80 | 
CC[C@H](Oc1ccccc1)[C@@H](Cc1ccccc1)[C@H](C)OC(=O)[C@H](C)NC(=O)c1nccc(OC)c1O [compound 117] | 80 to 100 | 80 to 100 | 80 to 100 | 0 to 80 | 
CC[C@@H](Oc1ccccc1)[C@@H](Cc1ccccc1)[C@H](C)OC(=O)[C@H](C)NC(=O)c1nccc(OC)c1O [compound 118] | 0 to 80 | 80 to 100 | 80 to 100 | 0 to 80 | 
COc1ccnc(C(=O)N[C@@H](C)C(=O)O[C@@H](C)[C@H](Cc2ccccc2)c2ccccc2)c1O [compound 119] |  |  |  | 0 to 80 | 
COc1ccnc(C(=O)N[C@@H](C)C(=O)O[C@@H](C)[C@H](Cc2ccccc2)C(C)C)c1O [compound 122] | 0 to 80 |  |  |  | 
COc1cccc(CC(Cc2cccc(OC)c2)[C@H](C)OC(=O)[C@H](C)NC(=O)c2nccc(OC)c2O)c1 [compound 152] | 80 to 100 | 0 to 80 |  |  | 
CCCOC[C@@H](Cc1ccccc1)[C@H](C)OC(=O)CNC(=O)c1nccc(OC)c1OC(C)=O [compound 176] |  |  |  |  | pest or weed control at 121.5 g/ha (Puccinia triticina; [1]): 80 to 100%; pest or weed control at 121.5 g/ha (Puccinia triticina; [5]): 0 to 80%
CC[C@H](Cc1ccc(C(F)(F)F)cc1)[C@@H](Cc1ccc(F)cc1)[C@H](C)OC(=O)[C@H](C)NC(=O)c1nccc(OC)c1OC(C)=O [compound 182] |  |  |  |  | pest or weed control at 121.5 g/ha (Puccinia triticina; [1]): 0 to 80%; pest or weed control at 121.5 g/ha (Puccinia triticina; [5]): 0 to 80%
CC[C@H](Cc1ccc(C(F)(F)F)cc1)[C@@H](Cc1ccc(F)cc1)[C@H](C)OC(=O)CNC(=O)c1nccc(OC)c1OC(C)=O [compound 183] |  |  |  |  | pest or weed control at 121.5 g/ha (Puccinia triticina; [1]): 0 to 80%
COC(=O)[C@@H](Cc1ccccc1)[C@H](C)OC(=O)[C@H](C)NC(=O)c1nccc(OC)c1OC(C)=O [compound 186] |  |  |  |  | pest or weed control at 121.5 g/ha (Zymoseptoria tritici; [3]): 0 to 80%
COc1ccnc(C(=O)N[C@@H](C)C(=O)O[C@@H](C)[C@H](Cc2ccc(Cl)c(Cl)c2)c2ccccc2)c1OC(=O)C(C)C [compound 217] |  |  |  |  | pest or weed control at 121.5 g/ha (Zymoseptoria tritici; [3]): 0 to 80%; pest or weed control at 121.5 g/ha (Zymoseptoria tritici; 72 h, 3 Day Curative, read-out: SEPTTR 3DC): 0 to 80%
CCCOC[C@@H](Cc1ccc(OC)cc1)[C@H](C)OC(=O)[C@H](C)NC(=O)c1nccc(OC)c1OCOC(C)=O [compound 256] |  |  |  |  | pest or weed control at 121.5 g/ha (Puccinia triticina; [1]): 80 to 100%; pest or weed control at 121.5 g/ha (Puccinia triticina; [5]): 80 to 100%
